Data from US7271165B2, “Rifamycin analogs and uses thereof” (priority 2003, dated 2007).
Converted amounts (≈) assume the structure as drawn. Like-named read-outs stand apart in the source and are kept apart here.

Assays:
[1] = test system: S. aureus; test: MIC assay, S. aureus; type: cell-based, Staphylococcus aureus
[2] = test system: H. flu; type: cell-based, H. influenza
[3] = test system: S. pneumo.; test: MIC assay, S. pneumo.; type: cell-based, Streptococcus pneumoniae
[4] = test system: E coli; test: MIC assay, E coli; type: cell-based
[5] = test system: E. faecalis; test: MIC assay, E. faecalis; type: cell-based, Enterococcus faecalis

SMILES | melting point [°C] | MIC (μg/mL) S. aureus [1] [µg/mL] | MIC (μg/mL) H. flu ([2]; H. flu) [µg/mL] | MIC (μg/mL) S. pneumo. [3] [µg/mL] | MIC (μg/mL) E coli [4] [µg/mL] | MIC (μg/mL) E. faecalis [5] [µg/mL] | MIC (μg/mL) H. flu [2] [µg/mL]
CO[C@H]1/C=C/OC2(C)Oc3c(C)c(O)c4c(=O)c(c5oc6cc(N7CC8CC7CN8)cc(O)c6nc-5c4c3C2=O)NC(=O)/C(C)=C\C=C\[C@H](C)[C@H](O)[C@@H](C)[C@@H](O)[C@@H](C)[C@H](OC(C)=O)[C@@H]1C (stereo partly shown) | > 330 |  |  |  |  |  | 
CO[C@H]1/C=C/OC2(C)Oc3c(C)c(O)c4c(=O)c(c5oc6cc(N7CC8CCC7CN8)cc(O)c6nc-5c4c3C2=O)NC(=O)/C(C)=C\C=C\[C@H](C)[C@H](O)[C@@H](C)[C@@H](O)[C@@H](C)[C@H](OC(C)=O)[C@@H]1C (stereo partly shown) | > 300 |  |  |  |  |  | 
CCOC(=O)C1CCN(c2cc(O)c3nc4c5c6c7c(C)c(O)c5c(=O)c(c-4oc3c2)NC(=O)/C(C)=C\C=C\[C@H](C)[C@H](O)[C@@H](C)[C@@H](O)[C@@H](C)[C@H](O)[C@H](C)[C@@H](OC)/C=C/O[C@@](C)(O7)C6=O)CC1 [Compound 110] |  | 0.004 (≈ 0.00438 µM) | 0.12 (≈ 0.131 µM) | 0.008 (≈ 0.00875 µM) | >8 | 0.5 (≈ 0.547 µM) | 
COC1C=COC2(C)Oc3c(C)c(O)c4c(=O)c(c5oc6cc(N7CCC(F)CC7)ccc6nc-5c4c3C2=O)NC(=O)C(C)=CC=CC(C)C(O)C(C)C(O)C(C)C(O)C1C (stereo not shown) [Compound 111] |  | 0.03 (≈ 0.0355 µM) | 0.12 (≈ 0.142 µM) | 0.008 (≈ 0.00948 µM) | 8 (≈ 9.48 µM) | 0.5 (≈ 0.592 µM) | 
COC1C=COC2(C)Oc3c(C)c(O)c4c(=O)c(c5oc6cc(N7CCC(F)(F)CC7)ccc6nc-5c4c3C2=O)NC(=O)C(C)=CC=CC(C)C(O)C(C)C(O)C(C)C(O)C1C (stereo not shown) [Compound 112] |  | 0.03 (≈ 0.0348 µM) | 0.25 (≈ 0.29 µM) | 0.015 (≈ 0.0174 µM) | >8 | 1 (≈ 1.16 µM) | 
COC1C=COC2(C)Oc3c(C)c(O)c4c(=O)c(c5oc6cc(N7CC(C)OC(C)C7)cc(O)c6nc-5c4c3C2=O)NC(=O)C(C)=CC=CC(C)C(O)C(C)C(O)C(C)C(O)C1C (stereo not shown) [Compound 114] |  | 0.015 (≈ 0.0172 µM) | 0.25 (≈ 0.287 µM) | 0.002 (≈ 0.00229 µM) | 8 (≈ 9.17 µM) | 0.25 (≈ 0.287 µM) | 
COC1C=COC2(C)Oc3c(C)c(O)c4c(=O)c(c5oc6cc(N7CCCC7)c(C7CCCCC7)cc6nc-5c4c3C2=O)NC(=O)C(C)=CC=CC(C)C(O)C(C)C(O)C(C)C(O)C1C (stereo not shown) [Compound 115] |  | 2 (≈ 2.24 µM) | 8 (≈ 8.95 µM) | 0.25 (≈ 0.28 µM) | >8 | >8 | 
COC1C=COC2(C)Oc3c(C)c(O)c4c(=O)c(c5oc6cc(N7CCCC7)c(C)c(C)c6nc-5c4c3C2=O)NC(=O)C(C)=CC=CC(C)C(O)C(C)C(O)C(C)C(O)C1C (stereo not shown) [Compound 117] |  | 0.5 (≈ 0.595 µM) | 1 (≈ 1.19 µM) | 0.06 (≈ 0.0714 µM) | >8 | 4 (≈ 4.76 µM) | 
COc1c(N2CCCC2)cc(C)c2nc3c4c5c6c(C)c(O)c4c(=O)c(c-3oc12)NC(=O)C(C)=CC=CC(C)C(O)C(C)C(O)C(C)C(O)C(C)C(OC)C=COC(C)(O6)C5=O (stereo not shown) [Compound 118] |  | 0.06 (≈ 0.0701 µM) | 0.12 (≈ 0.14 µM) | 0.03 (≈ 0.035 µM) | 8 (≈ 9.35 µM) | 2 (≈ 2.34 µM) | 
COC1C=COC2(C)Oc3c(C)c(O)c4c(=O)c(c5oc6cc(N7CCC(F)C7)ccc6nc-5c4c3C2=O)NC(=O)C(C)=CC=CC(C)C(O)C(C)C(O)C(C)C(O)C1C (stereo not shown) [Compound 119] |  | 0.03 (≈ 0.0361 µM) | 0.06 (≈ 0.0723 µM) | 0.015 (≈ 0.0181 µM) | 4 (≈ 4.82 µM) | 0.5 (≈ 0.602 µM) | 
COC1C=COC2(C)Oc3c(C)c(O)c4c(=O)c(c5oc6cc(N7CCCC7)c(F)cc6nc-5c4c3C2=O)NC(=O)C(C)=CC=CC(C)C(O)C(C)C(O)C(C)C(O)C1C (stereo not shown) [Compound 120] |  | 0.03 (≈ 0.0361 µM) | 0.12 (≈ 0.145 µM) | 0.06 (≈ 0.0723 µM) | 8 (≈ 9.64 µM) | 1 (≈ 1.2 µM) | 
COC1C=COC2(C)Oc3c(C)c(O)c4c(=O)c(c5oc6cc(N7CCCN(C)CC7)cc(O)c6nc-5c4c3C2=O)NC(=O)C(C)=CC=CC(C)C(O)C(C)C(O)C(C)C(O)C1C (stereo not shown) [Compound 121] |  | 0.004 (≈ 0.00459 µM) | 0.25 (≈ 0.287 µM) | 0.00012 (≈ 0.000138 µM) | 4 (≈ 4.59 µM) | 0.03 (≈ 0.0344 µM) | 
COC1C=COC2(C)Oc3c(C)c(O)c4c(=O)c(c5sc6cc(N7CCCN(C)CC7)ccc6nc-5c4c3C2=O)NC(=O)C(C)=CC=CC(C)C(O)C(C)C(O)C(C)C(O)C1C (stereo not shown) [Compound 122] |  | 0.002 (≈ 0.0023 µM) | 0.12 (≈ 0.138 µM) | 0.00025 (≈ 0.000287 µM) | 2 (≈ 2.3 µM) | 0.25 (≈ 0.287 µM) | 
COC1C=COC2(C)Oc3c(C)c(O)c4c(=O)c(c5oc6cc(N(C)CC(C)C)cc(O)c6nc-5c4c3C2=O)NC(=O)C(C)=CC=CC(C)C(O)C(C)C(O)C(C)C(O)C1C (stereo not shown) [Compound 125] |  | 0.015 (≈ 0.0178 µM) | 0.5 (≈ 0.592 µM) | 0.002 (≈ 0.00237 µM) | >8 | 0.5 (≈ 0.592 µM) | 
COC1C=COC2(C)Oc3c(C)c(O)c4c(=O)c(c5oc6cc(N(C)C7CCN(C)CC7)cc(O)c6nc-5c4c3C2=O)NC(=O)C(C)=CC=CC(C)C(O)C(C)C(O)C(C)C(O)C1C (stereo not shown) [Compound 126] |  | 0.004 (≈ 0.00452 µM) | 0.25 (≈ 0.282 µM) | 0.00025 (≈ 0.000282 µM) | 4 (≈ 4.52 µM) | 0.5 (≈ 0.565 µM) | 
COC1C=COC2(C)Oc3c(C)c(O)c4c(=O)c(c5oc6cc(N(C)CCC#N)ccc6nc-5c4c3C2=O)NC(=O)C(C)=CC=CC(C)C(O)C(C)C(O)C(C)C(O)C1C (stereo not shown) [Compound 127] |  | 0.06 (≈ 0.0727 µM) | 0.12 (≈ 0.145 µM) | 0.008 (≈ 0.0097 µM) | 8 (≈ 9.7 µM) | 0.5 (≈ 0.606 µM) | 
COC1C=COC2(C)Oc3c(C)c(O)c4c(=O)c(c5oc6cc(N7CCOCC7)cc(O)c6nc-5c4c3C2=O)NC(=O)C(C)=CC=CC(C)C(O)C(C)C(O)C(C)C(O)C1C (stereo not shown) [Compound 128] |  | 0.004 (≈ 0.00474 µM) |  | 0.00025 (≈ 0.000296 µM) | >8 | 0.06 (≈ 0.0711 µM) | 0.12 (≈ 0.142 µM)
COC1C=COC2(C)Oc3c(C)c(O)c4c(=O)c(c5sc6cc(N7CCOCC7)ccc6nc-5c4c3C2=O)NC(=O)C(C)=CC=CC(C)C(O)C(C)C(O)C(C)C(O)C1C (stereo not shown) [Compound 129] |  | 0.015 (≈ 0.0178 µM) |  | 0.001 (≈ 0.00118 µM) | 4 (≈ 4.74 µM) | 0.5 (≈ 0.592 µM) | 0.06 (≈ 0.0711 µM)
CO[C@H]1/C=C/O[C@@]2(C)Oc3c(C)c(O)c4c(=O)c(c5n(C)c6ccccc6nc-5c4c3C2=O)NC(=O)/C(C)=C\C=C\[C@H](C)[C@H](O)[C@@H](C)[C@@H](O)[C@@H](C)[C@H](O)[C@@H]1C [Compound 131] |  | 0.5 (≈ 0.661 µM) |  | 0.5 (≈ 0.661 µM) | 8 (≈ 10.6 µM) | 2 (≈ 2.65 µM) | 2 (≈ 2.65 µM)
C=CCc1cc(C)cc2nc3c4c5c6c(C)c(O)c4c(=O)c(c-3oc12)NC(=O)C(C)=CC=CC(C)C(O)C(C)C(O)C(C)C(O)C(C)C(OC)C=COC(C)(O6)C5=O (stereo not shown) [Compound 132] |  | 0.06 (≈ 0.0753 µM) |  | 0.03 (≈ 0.0376 µM) | >8 | 2 (≈ 2.51 µM) | 0.5 (≈ 0.627 µM)
CO[C@H]1/C=C/O[C@@]2(C)Oc3c(C)c(O)c4c(=O)c(c5oc6cccc(O)c6nc-5c4c3C2=O)NC(=O)/C(C)=C\C=C\[C@H](C)[C@H](O)[C@@H](C)[C@@H](O)[C@@H](C)[C@H](O)[C@@H]1C [Compound 133] |  | 0.004 (≈ 0.00527 µM) |  | 0.002 (≈ 0.00264 µM) | 8 (≈ 10.5 µM) | 0.12 (≈ 0.158 µM) | 0.25 (≈ 0.329 µM)
